The values that follow come from patent US20230346831A1, “METHODS FOR TREATING […] USING LOW DOSE CARBON MONOXIDE” (priority 2020, published 2023).

Test [1] deals with 8988T/TGL cells. The test can be described thus: orthotopic (intrasplenic) model of liver metastasis of PDAC. The following applies: 8988T/TGL cells intrasplenic, NSG mice, 5 days a week. Type of test: in vivo. How it is done: NSG mice were generated by the Jackson Laboratory. All mice were housed in accordance with the institutional guidelines. […] Zhang, & Y. N. Du, Methods Mol Biol 1882, 309-320 (2019)). The spleen was removed after the injection. Starting one day after injection, mice were randomized into two groups. One group was kept in a regular mouse holding room (control), and the other group was put into a chamber delivering 250 ppm CO 3 hours daily. Mice were subjected to bioluminescent imaging using the In Vivo Imaging System Spectrum (PerkinElmer, Waltham, MA) at 0, 1, 3 days and then weekly after tumor cells were injected until the final time points, as described previously by Y. C. Du, D. S. Klimstra, & H. Varmus, PLoS One 4, e6932 (2009)). Luciferase signals were transformed to nature log scale before analysis. GEE method was used to test the overall difference of tumor growth over time. All analyses were performed in statistical software SAS Version 9.4 (SAS Institute, Cary, NC).
Mouse tissues were removed and fixed in 10% buffered formalin overnight at room temperature. […] Tumor number and tumor size were quantified by scanning the whole tissue slide of each mouse under microscope. The size of tumor area of each tumor was measured by the cellSens imaging software (Olympus, Tokyo, Japan). […]

For test [2], the system named is MDA-MB-231/TGL cells. The test can be described thus: experimental tail vein lung metastasis assay, human breast cancer xenograft. Type of test: in vivo, NSG mice. The protocol: NSG mice were generated by the Jackson Laboratory. All mice were housed in accordance with the institutional guidelines. All procedures involving mice were approved by the institutional animal care and use committee of Weill Cornell Medicine. 1 × 10^5 or 5 × 10^4 MDA-MB-231/TGL cells in 150 µl PBS were injected into the tail veins of female NSG mice at the age of 7-8 weeks (n=5/group for 1× 10^5 cells and n = 6/group for 5 × 10^4 cells). 1× 10^4 8988T/TGL cells in 100 µl PBS were injected into spleen of NSG mice at age of 7-8 weeks (n=4/group, male and female) to observe the liver metastasis (G. Zhang, & Y. N. Du, Methods Mol Biol 1882, 309-320 (2019)). The spleen was removed after the injection. Starting one day after injection, mice were randomized into two groups. One group was kept in a regular mouse holding room (control), and the other group was put into a chamber delivering 250 ppm CO 3 hours daily. Mice were subjected to bioluminescent imaging using the In Vivo Imaging System Spectrum (PerkinElmer, Waltham, MA) at 0, 1, 3 days and then weekly after tumor cells were injected until the final time points, as described previously by Y. C. Du, D. S. Klimstra, & H. Varmus, PLoS One 4, e6932 (2009)). Luciferase signals were transformed to nature log scale before analysis. GEE method was used to test the overall difference of tumor growth over time. All analyses were performed in statistical software SAS Version 9.4 (SAS Institute, Cary, NC).
Mouse tissues were removed and fixed in 10% buffered formalin overnight at room temperature. Formalin-fixed/paraffin-embedded sections (5-µm) were deparaffinized and rehydrated by passage through a graded xylene/ethanol series before staining. Immunochemistry was performed using the VECTASTAIN Elite ABC kit following the manufacturer’s instructions. Tumor number and tumor size were quantified by scanning the whole tissue slide of each mouse under microscope. The size of tumor area of each tumor was measured by the cellSens imaging software (Olympus, Tokyo, Japan). Total tumor area of each mouse or total tumor number of each mouse was plotted. The primary antibodies used were cleaved caspase 3 (1:333; Cell Signaling Tech (Cat. No. 9661), Danvers, MA) and Ki67 (1:1000, Vector Labs (Cat. No. VP-K451), Burlingame, CA).
To determine whether 250 ppm CO inhibits cancer metastasis in vivo, an experimental tail vein metastasis assay with TNBC MDA-MB-231 cell line was performed. 0.1 million MDA-MB-231/TGL (luciferase reporter) cells were injected into the tail vein of the NOD/scid-lL2Rgc knockout (NSG) immunodeficient mice. Mice were randomly divided in to two groups after injection. […]

Take `[C-]#[O+]` [CO, Carbon monoxide]: the “metastatic tumor numbers in liver sections (histological analysis)” value in test [1] (250 ppm CO 3 hours daily, 19 days after the injection) is on record as “significantly less”. The “bioluminescence over the time course, control vs CO group” value in test [1] (250 ppm CO gas 3 hours daily, P < 0.0001, GEE method) is listed as “Significant difference”. For the same molecule, the “metastatic tumor burden in lung sections (histological analysis)” value was “significantly lower” in test [2] (0.1 million MDA-MB-231/TGL cells tail vein, NSG mice, 250 ppm CO gas 3 hours daily, 23-day time point, vs control) and “significantly lower” in test [2] (5 × 10^4 MDA-MB-231/TGL cells tail vein, 250 ppm CO 3 hours daily, 7 days/week, 25 days after the injection). Further, the “appearance / signs of sickness of the mice” value in test [2] (0.1 million MDA-MB-231/TGL cells tail vein, 250 ppm CO 3 hours daily, control group lethargic after 23 days) is “looked healthy and had no signs of sickness”. Further, the “bioluminescent signals (whole mice) over time” value in test [2] (5 × 10^4 MDA-MB-231/TGL cells tail vein, 250 ppm CO 3 hours daily, 7 days/week, imaging to 3 weeks, P = 0.0016, GEE method) is “significantly lower”.
